Data taken from PubChem BioAssay (NCI).
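Each compound was tested at five concentrations against cells in 96-well plates for 48 hours. TGI is the concentration that stops growth completely.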

How the values were obtained:
Assay in all cases: DTP human tumour cell line panel, 48 h
MALME-3M melanoma = system: MALME-3M melanoma
KM12 colon = system: KM12 colon
KM20L2 colon = system: KM20L2 colon
XF 498 CNS = system: XF 498 CNS
M14 melanoma = system: M14 melanoma
RPMI-8226 leukemia = system: RPMI-8226 leukemia
SK-OV-3 ovarian = system: SK-OV-3 ovarian
HL-60(TB) leukemia = system: HL-60(TB) leukemia
HCT-15 colon = system: HCT-15 colon
MOLT-4 leukemia = system: MOLT-4 leukemia
OVCAR-3 ovarian = system: OVCAR-3 ovarian
UACC-257 melanoma = system: UACC-257 melanoma
SF-268 CNS = system: SF-268 CNS
ACHN renal = system: ACHN renal
HT29 colon = system: HT29 colon
COLO 205 colon = system: COLO 205 colon
K-562 leukemia = system: K-562 leukemia
786-0 renal = system: 786-0 renal
NCI-H23 lung = system: NCI-H23 lung
DLD-1 colon = system: DLD-1 colon
NCI-H460 lung = system: NCI-H460 lung
NCI-H522 lung = system: NCI-H522 lung
DMS 114 small cell lung = system: DMS 114 small cell lung
LXFL 529 NSCLC = system: LXFL 529 NSCLC
TK-10 renal = system: TK-10 renal
LOX IMVI melanoma = system: LOX IMVI melanoma
NCI-H226 lung = system: NCI-H226 lung
SW-620 colon = system: SW-620 colon
SK-MEL-2 melanoma = system: SK-MEL-2 melanoma
M19-MEL melanoma = system: M19-MEL melanoma
OVCAR-8 ovarian = system: OVCAR-8 ovarian
OVCAR-5 ovarian = system: OVCAR-5 ovarian
A549 NSCLC = system: A549 NSCLC
UACC-62 melanoma = system: UACC-62 melanoma
SN12C renal = system: SN12C renal
CCRF-CEM leukemia = system: CCRF-CEM leukemia
SNB-78 CNS = system: SNB-78 CNS
SNB-75 CNS = system: SNB-75 CNS
SF-295 CNS = system: SF-295 CNS
OVCAR-4 ovarian = system: OVCAR-4 ovarian
HOP-92 NSCLC = system: HOP-92 NSCLC
IGROV1 ovarian = system: IGROV1 ovarian
SK-MEL-5 melanoma = system: SK-MEL-5 melanoma
RXF 393 renal = system: RXF 393 renal
SNB-19 CNS = system: SNB-19 CNS
DMS 273 small cell lung = system: DMS 273 small cell lung
SR leukemia = system: SR leukemia
HOP-62 NSCLC = system: HOP-62 NSCLC
U251 CNS = system: U251 CNS
SK-MEL-28 melanoma = system: SK-MEL-28 melanoma
HCC-2998 colon = system: HCC-2998 colon
HCT-116 colon = system: HCT-116 colon
UO-31 renal = system: UO-31 renal
A498 renal = system: A498 renal
SF-539 CNS = system: SF-539 CNS
EKVX NSCLC = system: EKVX NSCLC
CAKI-1 renal = system: CAKI-1 renal

Work on `Cc1ccc(C(O)/C(=N/N)c2nc3ccc([N+](=O)[O-])cc3[nH]c2=O)cc1` (stereo unspecified) yielded a TGI (MALME-3M melanoma) of over 100 µM, a TGI (KM12 colon) of over 100 µM and a TGI (KM20L2 colon) of over 100 µM. The TGI (XF 498 CNS) was over 100 µM, the TGI (M14 melanoma) was over 100 µM and the TGI (RPMI-8226 leukemia) was over 100 µM. The TGI (SK-OV-3 ovarian) was over 100 µM, the TGI (HL-60(TB) leukemia) was over 100 µM and the TGI (HCT-15 colon) was over 100 µM. It also gave a TGI (MOLT-4 leukemia) of over 100 µM, a TGI (OVCAR-3 ovarian) of over 100 µM and a TGI (UACC-257 melanoma) of over 100 µM. It also gave a TGI (SF-268 CNS) of over 100 µM, a TGI (ACHN renal) of over 100 µM and a TGI (HT29 colon) of over 100 µM. For the same molecule, the TGI (COLO 205 colon) was over 100 µM, the TGI (K-562 leukemia) was over 100 µM and the TGI (786-0 renal) was over 100 µM. For the same molecule, the TGI (NCI-H23 lung) was over 100 µM, the TGI (DLD-1 colon) was over 100 µM and the TGI (NCI-H460 lung) was over 100 µM. It also gave a TGI (NCI-H522 lung) of over 100 µM, a TGI (DMS 114 small cell lung) of over 100 µM and a TGI (LXFL 529 NSCLC) of over 100 µM. The TGI (TK-10 renal) was over 100 µM, the TGI (LOX IMVI melanoma) was over 100 µM and the TGI (NCI-H226 lung) was over 100 µM. The TGI (SW-620 colon) was over 100 µM, the TGI (SK-MEL-2 melanoma) was over 100 µM and the TGI (M19-MEL melanoma) was over 100 µM. The TGI (OVCAR-8 ovarian) was over 100 µM, the TGI (OVCAR-5 ovarian) was over 100 µM and the TGI (A549 NSCLC) was over 100 µM. It also gave a TGI (UACC-62 melanoma) of over 100 µM, a TGI (SN12C renal) of over 100 µM and a TGI (CCRF-CEM leukemia) of over 100 µM. The TGI (SNB-78 CNS) was over 100 µM, the TGI (SNB-75 CNS) was over 100 µM and the TGI (SF-295 CNS) was over 100 µM. The TGI (OVCAR-4 ovarian) was over 100 µM, the TGI (HOP-92 NSCLC) was over 100 µM and the TGI (IGROV1 ovarian) was over 100 µM. The TGI (SK-MEL-5 melanoma) was over 100 µM, the TGI (RXF 393 renal) was over 100 µM and the TGI (SNB-19 CNS) was over 100 µM. For the same molecule, the TGI (DMS 273 small cell lung) was over 100 µM, the TGI (SR leukemia) was over 100 µM and the TGI (HOP-62 NSCLC) was over 100 µM. It also gave a TGI (U251 CNS) of over 100 µM, a TGI (SK-MEL-28 melanoma) of over 100 µM and a TGI (HCC-2998 colon) of over 100 µM. For the same molecule, the TGI (HCT-116 colon) was over 100 µM and the TGI (UO-31 renal) was over 100 µM.

`CSC1CC2C(CC1(C)SC)C2(C)C` (stereo unspecified) gave a TGI (A498 renal) of over 100 µM, a TGI (MALME-3M melanoma) of over 100 µM and a TGI (KM12 colon) of over 100 µM. It also gave a TGI (XF 498 CNS) of 50.8 µM, a TGI (SF-539 CNS) of over 100 µM and a TGI (M14 melanoma) of over 100 µM. The TGI (RPMI-8226 leukemia) was 93.4 µM, the TGI (SK-OV-3 ovarian) was over 100 µM and the TGI (HL-60(TB) leukemia) was 58 µM. It also gave a TGI (HCT-15 colon) of over 100 µM, a TGI (MOLT-4 leukemia) of over 100 µM and a TGI (OVCAR-3 ovarian) of over 100 µM. The TGI (UACC-257 melanoma) was 86.9 µM, the TGI (SF-268 CNS) was over 100 µM and the TGI (ACHN renal) was over 100 µM. The TGI (HT29 colon) was over 100 µM, the TGI (COLO 205 colon) was over 100 µM and the TGI (K-562 leukemia) was 81.8 µM. It also gave a TGI (786-0 renal) of over 100 µM, a TGI (NCI-H23 lung) of over 100 µM and a TGI (DLD-1 colon) of over 100 µM. The TGI (NCI-H460 lung) was 67 µM, the TGI (NCI-H522 lung) was over 100 µM and the TGI (LXFL 529 NSCLC) was over 100 µM. It also gave a TGI (TK-10 renal) of over 100 µM, a TGI (LOX IMVI melanoma) of over 100 µM and a TGI (NCI-H226 lung) of 73.1 µM. The TGI (SW-620 colon) was over 100 µM, the TGI (SK-MEL-2 melanoma) was 56.8 µM and the TGI (M19-MEL melanoma) was over 100 µM. It also gave a TGI (EKVX NSCLC) of over 100 µM, a TGI (OVCAR-8 ovarian) of over 100 µM and a TGI (OVCAR-5 ovarian) of over 100 µM. It also gave a TGI (A549 NSCLC) of over 100 µM, a TGI (UACC-62 melanoma) of over 100 µM and a TGI (CAKI-1 renal) of over 100 µM. For the same molecule, the TGI (CCRF-CEM leukemia) was 84.2 µM, the TGI (SNB-78 CNS) was over 100 µM and the TGI (SNB-75 CNS) was 83.9 µM. It also gave a TGI (SF-295 CNS) of over 100 µM, a TGI (OVCAR-4 ovarian) of over 100 µM and a TGI (HOP-92 NSCLC) of 53.9 µM. For the same molecule, the TGI (IGROV1 ovarian) was over 100 µM, the TGI (SK-MEL-5 melanoma) was 78.9 µM and the TGI (RXF 393 renal) was over 100 µM. The TGI (SNB-19 CNS) was over 100 µM, the TGI (DMS 273 small cell lung) was over 100 µM and the TGI (SR leukemia) was over 100 µM. For the same molecule, the TGI (HOP-62 NSCLC) was over 100 µM, the TGI (U251 CNS) was over 100 µM and the TGI (SK-MEL-28 melanoma) was over 100 µM. For the same molecule, the TGI (HCC-2998 colon) was over 100 µM and the TGI (UO-31 renal) was over 100 µM.
